The numbers were not newly measured in paper PMC9655391 (International Journal of Molecular Sciences, 2022), which cites them from elsewhere.

As a reminder, the bioavailability is the share of a dose that reaches the circulation, judged against a reference dose that is usually intravenous.

The conditions of the data set: oral administration; ref [16],[20],[21],[22].

In the case of `CCCCc1nc(Cl)c(CO)n1Cc1ccc(-c2ccccc2-c2nn[nH]n2)cc1` [LP, losartan potassium], the bioavailability was 32%.
